Experimental data as given in US20250109120A1, “INDOLINE DERIVATIVES FOR TREATMENT AND/OR PREVENTION OF TUMOR OR CELL PROLIFERATIVE AND FIBROSIS DISEASES” (NATIONAL TAIWAN UNIVERSITY, priority 2023, published 2025).

Key:
[1] = tested on: prostate cancer cells; experiment: TGF-β1-induced EMT proteins and gene expression, western blot and real-time PCR; type: cell-based, human
Procedure: Cells were exposed to compound k as indicated concentrations or senexin A (10 μM) in the presence or absence of TGF-β1 (10 ng/mL) for 24 h, the proteins and mRNA levels of E-cadherin, N-cadherin, Snail, vimentin, α-SMA were determined by western blot (A) or real-time PCR (B). Results are shown as the mean±SEM from at least three independent experiments (**p<0.01, ***p<0.001 vs. control group; #p<0.05, ##p<0.01, and ###p<0.001 vs. TGF-β1 treatment group).
Total RNA was isolated from cells using TRIzol reagent (Invitrogen). […] Quantitative PCR was performed using TaqMan One Step RT-PCR mastermix (ABI) in a total reaction volume of 20 μL per reaction, consisting of 10 μL of SYBR green PCR master mix (Applied Biosystems), 5 pmol of each forward/reverse primer, and 2 μL of cDNA. […] The threshold cycle (Ct) in the exponential phase of amplification was detected, the relative mRNA expression level was determined by calculating the ΔΔCt values, and the fold change was expressed as 2^−ΔΔCt. […]
The cells were incubated in lysis buffer for 10 min at 4° C., scraped off, incubated on ice for an additional 10 min and then centrifuged at 17,000 g for 30 min at 4° C. […] Bound antibodies will be measured using an ECL reagent and exposed to a photographic film. […]

[2] = tested on: A549 cells; experiment: MTT cell viability assay; type: cell-based, human; settings: 12, 24 and 48 h, up to 10 μM
Procedure: FIGS. 4A-4B show the inhibition of epithelial-to-mesenchymal transition protein expressions by CDK8 inhibitors in human alveolar epithelial cells. […] Cell lysates were subjected to a Western blot analysis using the indicated antibodies. Results are shown as the mean t SEM from three independent experiments. *p<0.05, and ***p<0.001 compared to the control group; #p<0.05, ##p<0.01, and ###p<0.001 compared to the TGF-β1-treated group. […] Cell viabilities were determined by an MTT assay. Results are shown as the mean t SEM of three independent experiments.
Cell cytotoxicity was measured by a colorimetric MTT assay. […] After various treatments, 1 mg/mL of MTT was added, and the plates were incubated at 37° C. for an additional 2 h. Then cells were pelleted and lysed with 10% sodium dodecylsulfate (SDS) with 0.01 M HCl, and the absorbance at 570 nm was measured on a microplate reader.

[3] = tested on: A549 cells; experiment: Wound-healing migration assay; type: cell-based, human; settings: compounds 2 μM, senexin A 5 μM, pirfenidone 1 mM; TGF-β1 10 ng/mL; 24 or 48 h
Procedure: A549 cells were incubated in six-well plates until reaching 90% confluency, scratched with a pipette tip, and immediately photographed (0 h). Cells were incubated with or without compound k (2 μM), senexin A (5 μM), or pirfenidone (1 mM) for 1 h, then treated with TGF-β1 (10 ng/mL) and allowed to migrate into the wound area for 24 or 48 h, and photographed. Cell migration into the wound was quantified using ImageJ software; the solid line indicates time zero. Quantitative assessment of the mean number of cells in the denuded zone is expressed as the mean±SEM from three independent experiments. **p<0.01 compared to the control group; ##p<0.01 and ###p<0.001 compared to TGF-β1-treated group.
Cells were seeded in six-well plates and cultured to 90% confluency, at which time the cellular monolayer was wounded with a sterile 10-μL pipette tip and washed with culture medium to remove detached cells. Cells were incubated in the presence or absence of test compounds for 24 h and photographed. The wound closure percentages were subsequently determined using ImageJ software (National Institutes of Health, USA).

[4] = tested on: other CDKs and kinases; experiment: Kinase selectivity panel of 54 kinases (SelectScreen); type: biochemical; settings: 150 nM, 54-kinase panel
Procedure: (§1) Compounds were tested for kinase inhibitory activity using the Thermo Fisher SelectScreen service (www.thermofisher.com/selectscreen). For CDK8, the LanthaScreen Eu Binding Assay was used. Briefly, the assay employed utilizes a fluorescent tracer to a given kinase. This is used to detect the addition of an anti-tag antibody. When the tracer and antibody bind to the targeted kinase, the Forster resonance energy transfer is measured. When a kinase inhibitor is added to the assay, the tracer/kinase binding will be disrupted, producing low FRET detection and indicating kinase inhibitory activity. Evaluation of kinase activity of additional kinase targets utilized the LanthaScreen binding assay or the Z′-Lyte activity assay provided by Thermo Fisher SelectScreen service. The IC50 values were determined using sequential doses, and the inhibition curves were provided by Thermo Fisher Scientific.
(§2) Compound k was evaluated for kinase selectivity. […] The cytotoxicity of compound k was then assessed in DU145 and PC-3 cells, human prostate cancer cell lines isolated from patients with brain and bone metastasis, respectively. […] To further examine whether compound k still inhibited CDK8/19 inhibition in cells, we assessed whether compound treatment in DU145/PC-3 androgen-independent prostate cancer cells could inhibit STAT1-S727 phosphorylation. […]

[5] = target: CDK19 (Homo sapiens (Human), UniProt Q9BWU1); experiment: as above; type: biochemical; settings: 150 nM, 54-kinase panel
CDK19, sequence (Q9BWU1 whole entry): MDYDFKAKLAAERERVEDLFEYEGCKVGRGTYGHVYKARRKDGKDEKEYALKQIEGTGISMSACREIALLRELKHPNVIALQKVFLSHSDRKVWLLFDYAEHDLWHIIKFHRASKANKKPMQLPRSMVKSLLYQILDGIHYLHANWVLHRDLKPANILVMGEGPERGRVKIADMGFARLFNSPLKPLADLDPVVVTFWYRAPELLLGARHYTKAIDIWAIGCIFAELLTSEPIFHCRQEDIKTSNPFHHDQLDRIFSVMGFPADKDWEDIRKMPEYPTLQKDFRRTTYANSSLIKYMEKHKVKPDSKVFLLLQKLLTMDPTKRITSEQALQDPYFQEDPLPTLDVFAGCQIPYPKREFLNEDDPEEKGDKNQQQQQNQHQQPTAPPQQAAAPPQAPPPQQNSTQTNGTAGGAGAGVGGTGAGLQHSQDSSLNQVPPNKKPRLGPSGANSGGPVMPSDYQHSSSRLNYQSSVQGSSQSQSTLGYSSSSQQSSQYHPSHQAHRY
Procedure: as §1, §2

CNC(=O)c1cc(Oc2ccc(NS(=O)(=O)c3ccc4c(c3)C(=C(C)C)C(=O)N4)c(F)c2)ccn1 [Compound k, 4-(3-Fluoro-4-((2-oxo-3-(propan-2-ylidene)indoline)-5-sulfonamido)phenoxy)-N-methylpicolinamide]
TGF-β1 effects on E-cadherin, N-cadherin, Snail, vimentin ([1]; TGF-β1 10 ng/mL, 24 h): attenuated the effects of TGF-β1 | EMT protein inhibitory effects compared with senexin A ([1]; senexin A 10 μM): more potent | cell viability [2]: did not significantly change | inhibition of cell migration [3]: potent inhibition | effect on other CDKs and kinases [4]: no significant effect | CDK19 inhibition percentage [5]: 40%
